Reference: ChEMBL document CHEMBL5512623, “Discovery of the novel and potent histamine H1 receptor antagonists for treatment of allergic diseases” (Eur J Med Chem, 2024)

Columns and labels:
[1] = target: Muscarinic acetylcholine receptor M3 (Homo sapiens, UniProt P20309); test: Antagonist activity at human muscarinic M3 receptor expressed in PathHunter U2OS CHRM3 beta-arrestin cells preincubated for 30 mins followed by agonist addition at 6 times EC80 and measured after 90 to 180 mins by PathHunter assay; type: functional, cell-based
Muscarinic acetylcholine receptor M3, sequence (P20309 whole entry): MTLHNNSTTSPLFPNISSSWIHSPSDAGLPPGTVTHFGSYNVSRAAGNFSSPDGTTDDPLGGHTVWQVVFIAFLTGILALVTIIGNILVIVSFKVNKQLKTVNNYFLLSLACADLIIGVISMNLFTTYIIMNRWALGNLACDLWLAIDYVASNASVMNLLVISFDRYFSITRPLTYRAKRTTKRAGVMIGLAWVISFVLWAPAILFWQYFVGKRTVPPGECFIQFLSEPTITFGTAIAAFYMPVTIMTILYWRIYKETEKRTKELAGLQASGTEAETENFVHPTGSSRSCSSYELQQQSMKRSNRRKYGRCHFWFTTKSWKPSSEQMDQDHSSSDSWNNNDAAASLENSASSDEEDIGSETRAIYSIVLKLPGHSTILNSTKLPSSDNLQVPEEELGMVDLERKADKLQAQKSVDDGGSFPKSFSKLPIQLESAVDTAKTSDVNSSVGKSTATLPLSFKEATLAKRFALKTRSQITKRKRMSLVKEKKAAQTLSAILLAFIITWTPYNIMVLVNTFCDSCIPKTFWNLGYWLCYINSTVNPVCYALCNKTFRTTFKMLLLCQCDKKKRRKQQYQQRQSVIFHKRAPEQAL

[2] = target: Voltage-gated inwardly rectifying potassium channel KCNH2 (Homo sapiens, UniProt Q12809); test: Inhibition of hERG in HEK293 cells measured after 5 mins by patch-clamp assay
Voltage-gated inwardly rectifying potassium channel KCNH2, sequence (Q12809 whole entry): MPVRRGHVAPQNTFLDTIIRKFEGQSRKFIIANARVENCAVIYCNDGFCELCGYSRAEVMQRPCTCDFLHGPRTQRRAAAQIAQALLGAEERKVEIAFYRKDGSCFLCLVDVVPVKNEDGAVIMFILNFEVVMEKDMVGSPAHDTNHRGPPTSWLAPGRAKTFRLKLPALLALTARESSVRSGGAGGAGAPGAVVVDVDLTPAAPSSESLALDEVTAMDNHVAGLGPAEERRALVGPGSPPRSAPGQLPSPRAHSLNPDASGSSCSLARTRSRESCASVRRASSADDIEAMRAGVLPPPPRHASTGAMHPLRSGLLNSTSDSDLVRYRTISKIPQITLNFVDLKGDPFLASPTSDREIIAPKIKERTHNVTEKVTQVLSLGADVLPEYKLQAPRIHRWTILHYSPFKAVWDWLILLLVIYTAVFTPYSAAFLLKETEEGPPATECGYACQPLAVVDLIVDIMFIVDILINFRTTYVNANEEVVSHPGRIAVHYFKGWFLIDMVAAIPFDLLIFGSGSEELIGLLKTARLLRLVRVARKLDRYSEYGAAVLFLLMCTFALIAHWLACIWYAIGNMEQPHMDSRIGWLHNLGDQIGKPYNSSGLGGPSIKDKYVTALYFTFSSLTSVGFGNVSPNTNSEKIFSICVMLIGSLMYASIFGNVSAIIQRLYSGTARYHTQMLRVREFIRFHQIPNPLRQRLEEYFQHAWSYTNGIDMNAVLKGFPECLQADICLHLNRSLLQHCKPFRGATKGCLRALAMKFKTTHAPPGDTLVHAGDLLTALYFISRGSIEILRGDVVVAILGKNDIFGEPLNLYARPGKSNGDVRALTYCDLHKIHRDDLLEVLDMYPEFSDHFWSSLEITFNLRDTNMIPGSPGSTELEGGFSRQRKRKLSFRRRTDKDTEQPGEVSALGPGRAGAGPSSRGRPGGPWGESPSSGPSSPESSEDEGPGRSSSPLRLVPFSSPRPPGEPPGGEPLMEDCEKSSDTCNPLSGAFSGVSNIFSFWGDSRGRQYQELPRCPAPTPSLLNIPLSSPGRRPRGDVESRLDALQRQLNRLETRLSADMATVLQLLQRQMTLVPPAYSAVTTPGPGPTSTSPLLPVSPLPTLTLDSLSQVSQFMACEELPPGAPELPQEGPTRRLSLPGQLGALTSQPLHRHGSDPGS

Histamine H1 receptor = Histamine H1 receptor (Homo sapiens, UniProt P35367); test: Antagonist activity at human H1 receptor expressed in PathHunter CHO-K1 HRH1 beta-arrestin cells preincubated for 30 mins followed by agonist addition at 6 times EC80 and measured after 90 to 180 mins by PathHunter assay; type: functional, cell-based
Histamine H1 receptor, sequence (P35367 whole entry): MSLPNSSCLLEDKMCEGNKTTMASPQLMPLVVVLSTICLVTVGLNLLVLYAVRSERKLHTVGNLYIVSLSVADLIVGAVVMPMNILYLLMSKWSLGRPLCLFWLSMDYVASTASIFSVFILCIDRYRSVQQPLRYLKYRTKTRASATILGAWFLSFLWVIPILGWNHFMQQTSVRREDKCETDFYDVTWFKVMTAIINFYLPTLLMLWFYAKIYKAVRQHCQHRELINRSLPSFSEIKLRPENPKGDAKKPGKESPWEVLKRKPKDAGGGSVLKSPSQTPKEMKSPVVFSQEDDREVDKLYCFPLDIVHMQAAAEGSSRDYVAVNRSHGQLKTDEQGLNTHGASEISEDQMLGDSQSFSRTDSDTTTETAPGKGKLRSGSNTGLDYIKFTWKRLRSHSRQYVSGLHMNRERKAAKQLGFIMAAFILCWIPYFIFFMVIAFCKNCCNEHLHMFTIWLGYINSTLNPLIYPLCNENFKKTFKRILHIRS

| IC50 [1] [µM] | IC50 (Histamine H1 receptor) [nM] | Compound | IC50 [2] [µM] |
| --- | --- | --- | --- |
| > 10 |  | O=C(CCO)N1CCC(=C2c3ccc(Cl)cc3CCc3cccnc32)CC1 |  |
| > 10 |  | CC(C)(C(=O)O)c1ccc(CCN2CCC(=C3c4ccc(Cl)cc4CCc4cccnc43)CC2)cc1 | > 30 |
| > 10 | 57.2 | CC(C)(C(=O)O)c1cccc(CC(O)CN2CCC(=C3c4ccc(Cl)cc4CCc4cccnc43)CC2)c1 (stereo not drawn) |  |
| > 10 | 126 | O=C(O)CC(O)CN1CCC(=C2c3ccc(Cl)cc3CCc3cccnc32)CC1 (stereo not drawn) | > 30 |
